Earlier results in patent US8318954B2, “Cleavable carnitine compound” (Nou Life Sciences, Inc., priority 2006, dated 2012).
Entries after “also recorded” stand apart in the source; their conditions may differ. Where two headings read alike, the source gives them in different places.

Tests used:
[1] = tested on: patients having diabetic neuropathy; settings: cited from earlier work
[2] = tested on: subcutaneous adipocytes in rats; settings: long-term administration, rat; cited from earlier work
[3] = tested on: rats with unilateral sciatic nerve division; settings: 50 mg/kg/day i.p. for 6 weeks; compared to no treatment; cited from earlier work
diabetic rats [4] = settings: diabetic rat, 30 days after sciatic nerve cutting; diet: 200 mg/kg acetyl L-carnitine, 200 mg/kg carnitine mixture, 50 mg/kg α-lipoic acid daily; cited from earlier work
diabetic rats [5] = settings: streptozocin diabetic rats, sciatic nerve; amount administered not specified; cited from earlier work
chinchilla laniger = settings: cited from earlier work
mice and rats = settings: cited from earlier work
[6] = tested on: rats with unilateral sciatic nerve division; settings: cited from earlier work
Wobbler mice = settings: twenty days oral, acetyl L-carnitine 200 mg/kg, carnitine mixture 200 mg/kg, α-lipoic acid 50 mg/kg; cited from earlier work
[7] = three weeks after noise exposure

## CC(=O)O[C@H](CC(=O)[O-])C[N+](C)(C)C [Acetyl-L-carnitine]
[1]; 1000 mg/day i.m. 10 days, then 2000 mg/day oral 355 days, 12 month period
  tolerability: well tolerated
[1]; at 6- and 12 months, compared to placebo
  nerve conduction velocity NCV: statistically significant improvement
[1]; at 12 months, patients with impaired electrophysiological parameters at baseline, compared to placebo
  Amplitude: statistically significant improvement
[1]; compared to placebo
  pain (visual analogue scale): significant reduction; also recorded: statistically significant improvement
[2]
  size of subcutaneous adipocytes in aging skin: blocks progressive increase in size
[3]
  immunostaining for Schwann cells, percentage area: 86 % increase
  immunostaining for Schwann cells, total area: 111 % increase
  immunostaining for nerve fibres, percentage area: 229 % increase
  immunostaining for nerve fibres, total area: 264 % increase
  regeneration into the distal stump, percentage area: 3,034 % increase
  regeneration into the distal stump, total area: 2,242 % increase
Diabetic rats [4]
  Density of tibial nerve degenerate elements: 0.16 ± 0.02 per 100 nm^2
  Number of tibial nerve degenerate elements: 560 ± 61
Diabetic rats [5]
  NMCV: 34.5 ± 2.1 m/sec
Chinchilla laniger; 4- to 10-kHz region
  outer hair cell loss: < 10%
Chinchilla laniger; in vivo
  inner and outer hair cell loss: reduced
Chinchilla laniger; [7]
  threshold shift at 2 to 4 kHz: no threshold shift
  threshold shifts at 6 to 8 kHz: < 10 dB
Mice and rats; parenteral, mice and rats
  dose that can be parenterally administered: up to 250 mg/kg
Mice and rats; via the diet, 30 consecutive days, 200 mg/kg acetyl L-carnitine together with 100 mg/kg alpha lipoic acid
  tolerability on prolonged administration: well tolerated
[6]; 2 weeks after axotomy, high-dose 50 mg/kg/day parenteral, 50 mg/kg/day
  number of TUNEL-positive neurons: 3 /group
[6]; 2 weeks after axotomy, high-dose 50 mg/kg/day parenteral, listed as ALCAR, 50 mg/kg/day
  number of TUNEL-positive neurons: significantly reduced
[6]; 2 weeks after axotomy, high-dose 50 mg/kg/day, 50 mg/kg/day
  neuron loss: 2%
[6]; 2 weeks after axotomy, high-dose 50 mg/kg/day, listed as ALCAR, 50 mg/kg/day
  neuron loss: significantly reduced
[6]; 2 weeks after axotomy, low-dose 10 mg/kg/day parenteral
  number of TUNEL-positive neurons: 6 /group
[6]; 2 weeks after axotomy, low-dose 10 mg/kg/day
  neuron loss: 0%
[6]; two months after axotomy, high-dose 50 mg/kg/day
  neuron loss: −4%
Wobbler mice
  % increase in running time: 35 ± 3.2%
